Drawing on ChEMBL document CHEMBL1151107, “Inhibition of dopamine beta-hydroxylase by goitrin, a natural antithyroid compound” (J Nat Prod, 1988), this text covers Activity, concentration and inhibition for 3 molecules.

Data set [1] has as its system Rattus norvegicus. In words: Inhibition of dopamine beta-hydroxylase in Sprague-Dawley rat assessed as increase in adrenal dopamine level at 50 mg/kg, ip after 4 hrs by liquid chromatography (RVb=5.9+/-1.0). It is filed as functional. Conditions: route intraperitoneal.
Data set [2] deals with Rattus norvegicus. In words: Inhibition of dopamine beta-hydroxylase in Sprague-Dawley rat assessed as decrease in brain norepinephrine level at 50 mg/kg, ip after 2.5 hrs by liquid chromatography (RVb=0.216+/-0.025). It counts as functional. Conditions: route intraperitoneal.
A short description of data set [3]: Drug level in Sprague-Dawley rat brain at 50 mg/kg, ip after 4 hrs. Conditions: read-out: Drug uptake. It counts as ADME, organism-based. Set-up: dose 50 mg/kg, route intraperitoneal.
For data set [4], the target named is T1, Dopamine beta-hydroxylase (Bos taurus) (UniProt P15101).
T1 sequence (whole entry): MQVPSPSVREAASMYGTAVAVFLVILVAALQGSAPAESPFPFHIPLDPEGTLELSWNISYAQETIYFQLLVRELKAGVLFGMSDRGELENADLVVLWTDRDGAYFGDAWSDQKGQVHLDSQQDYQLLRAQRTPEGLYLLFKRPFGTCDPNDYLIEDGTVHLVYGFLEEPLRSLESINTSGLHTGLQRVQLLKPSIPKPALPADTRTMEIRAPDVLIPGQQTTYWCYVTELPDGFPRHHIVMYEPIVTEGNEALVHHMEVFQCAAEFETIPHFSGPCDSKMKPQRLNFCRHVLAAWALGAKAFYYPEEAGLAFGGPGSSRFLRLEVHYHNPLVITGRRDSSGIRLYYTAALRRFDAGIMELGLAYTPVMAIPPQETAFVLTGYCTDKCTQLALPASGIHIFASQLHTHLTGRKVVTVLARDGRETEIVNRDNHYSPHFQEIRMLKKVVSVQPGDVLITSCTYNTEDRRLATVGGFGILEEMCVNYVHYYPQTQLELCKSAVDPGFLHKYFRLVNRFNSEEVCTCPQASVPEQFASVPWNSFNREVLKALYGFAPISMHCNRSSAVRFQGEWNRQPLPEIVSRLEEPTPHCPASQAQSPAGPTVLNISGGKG
In words: Inhibition of bovine adrenal dopamine beta-hydroxylase assessed as norepinephrine formation per mg of protein at 0.1 mM after 45 mins.

Data set [5] deals with Rattus norvegicus. In words: Inhibition of dopamine beta-hydroxylase in Sprague-Dawley rat assessed as increase in cardiac dopamine level at 50 mg/kg, ip after 4 hrs by liquid chromatography (RVb=0.023+/-0.005). It counts as functional. Particulars: route intraperitoneal.
For data set [6], the system named is Rattus norvegicus. In words: Inhibition of dopamine beta-hydroxylase in Sprague-Dawley rat assessed as decrease in brain norepinephrine level at 50 mg/kg, ip after 1 hr by liquid chromatography (RVb=0.222+/-0.069). It is filed as functional. Particulars: route intraperitoneal.
Data set [7] has as its target T1, Dopamine beta-hydroxylase (Bos taurus). In words: Inhibition of bovine adrenal dopamine beta-hydroxylase at 0.1 mM.
Data set [8] has the same target. In words: Inhibition of bovine adrenal dopamine beta-hydroxylase at 0.2 mM.
Data set [9] relates to Rattus norvegicus. In words: Inhibition of dopamine beta-hydroxylase in Sprague-Dawley rat assessed as decrease in brain norepinephrine level at 50 mg/kg, ip after 6 hrs by liquid chromatography (RVb=0.206+/-0.022). It is filed as functional. Conditions: route intraperitoneal.
Data set [10] concerns the target T1, Dopamine beta-hydroxylase (Bos taurus). In words: Inhibition of bovine adrenal dopamine beta-hydroxylase assessed as norepinephrine formation per mg of protein at 0.2 mM after 45 mins.
A short description of data set [11]: Drug level in Sprague-Dawley rat heart at 50 mg/kg, ip after 4 hrs. It is filed as ADME, organism-based. Conditions: read-out: Drug uptake. Set-up: dose 50 mg/kg, route intraperitoneal.

As for `C=CC1CNC(=S)O1` (stereo unspecified), the Activity came out at 10 µg/g in the data set on Rattus norvegicus [1]; 0.158 µg/g in the data set on Rattus norvegicus [2]; 77 nmol in data set [4]; 0.071 µg/g with Rattus norvegicus [5]; 0.249 µg/g in the data set on Rattus norvegicus [6]; 0.092 µg/g with Rattus norvegicus [9]. The Activity in data set [10] turned out to be 49 nmol. Besides, the values for the concentration at 4 h in data set [3] and in data set [11] were 21000 ng/g and 22300 ng/g, respectively. In addition, the results for the inhibition in [7] and in [8] were 55% and 78%, respectively.

On to `Cn1ccnc1S` [METHIMAZOLE], for which the Activity with Rattus norvegicus [2] stood at 0.143 µg/g; in the data set with Rattus norvegicus [6] it was 0.216 µg/g; in the data set with Rattus norvegicus [9], 0.076 µg/g; in data set [10] it was 53 nmol.

As for `C=C[C@@H]1CNC(=S)O1`, the Activity in data set [4] stood at 62 nmol.
